Reference: US9795139B2, “Molecules having pesticidal utility, and intermediates, compositions, and processes, related thereto” (priority 2015, dated 2017)

What was measured:
Type in all cases: in vivo
[1] = test system: Green Peach Aphid (Myzus persicae, MYZUPE); test: Bioassay on Green Peach Aphid (GPA), foliar spray on cabbage seedlings; conditions: 72 h, 200 ppm foliar spray on cabbage seedlings, three days, Abbott corrected % control, read-out: GPA % Control (or Mortality) rating
Procedure: Certain molecules disclosed in this document were tested against GPA using procedures described in the following example. In the reporting of the results, the “GPA & YFM Rating Table” was used (See Table Section).
Cabbage seedlings grown in 3-inch pots, with 2-3 small (3-5 cm) true leaves, were used as test substrate. The seedlings were infested with 20-50 GPA (wingless adult and nymph stages) one day prior to chemical application. Four pots with individual seedlings were used for each treatment. Test molecules (2 mg) were dissolved in 2 mL of acetone/methanol (1:1) solvent, forming stock solutions of 1000 ppm test molecule.
The stock solutions were diluted 5× with 0.025% Tween 20 in water to obtain the solution at 200 ppm test molecule. A hand-held aspirator-type sprayer was used for spraying a solution to both sides of […] leaves until runoff. Reference plants (solvent check) were sprayed with the diluent only containing 20% by volume of acetone/methanol (1:1) solvent. Treated plants were held in a holding room for three days at approximately 25° C. and ambient relative humidity (RH) prior to grading. Evaluation was conducted by counting the number of live aphids per plant under a microscope. Percent control was measured using Abbott's correction formula (W. S. Abbott, “A Method of Computing the Effectiveness of an Insecticide” J. Econ. Entomol. 18 (1925), pp. 265-267) as follows. Corrected % Control=100*(X−Y)/X where X=No. of live aphids on solvent check plants and Y=No. of live aphids on treated plants. The results are indicated in the table entitled “Table ABC: Biological Results” (See Table Section).

[2] = test system: Cabbage Looper (Trichoplusia ni, TRIPNI); test: Bioassay on Cabbage Looper (CL), 128-well diet tray assay; conditions: 168 h, 50 μg/cm^2 on artificial diet, second instar larvae, 25° C., five to seven days, average of eight wells, read-out: CL % Control (or Mortality) rating
Procedure, shortened: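 Second-instar larvae, one to five per well, were placed on artificial diet surface-treated with 50 μg/cm^2 test molecule applied in 90:10 acetone-water and dried, eight wells per molecule. Trays were covered, vented and held at 25° C., 14:10 light-dark for five to seven days; percent mortality per well was averaged.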

[3] = test system: Yellow Fever Mosquito (Aedes aegypti, AEDSAE); conditions: about 1 day-old larvae, 96-well plate from 4000 ppm DMSO master, 3 days at room temperature
Procedure, shortened: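 Aedes aegypti larvae (about 1 day old) in liver-powder water were added to plates dispensed from DMSO master plates (4000 ppm stock) diluted with 90:10 water/acetone; six replicate plates per master. Lidded plates were held at room temperature for 3 days, then each well was scored for mortality.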

[4] = test system: Beet Armyworm (Spodoptera exigua, LAPHEG); test: Bioassay on Beet Armyworm (BAW), 128-well diet tray assay; conditions: 168 h, 50 μg/cm^2 on artificial diet, second instar larvae, 25° C., five to seven days, average of eight wells, read-out: BAW % Control (or Mortality) rating
Procedure, shortened: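 Second instar larvae were exposed to diet treated at 50 μg/cm^2 for five to seven days at 25° C.; mortality was averaged over eight wells.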

Structure (SMILES) | mortality at 200 ppm [1] [%] | mortality at 50 µg/cm2 [2] [%] | YFM % Control (or Mortality) rating [3] | mortality at 50 µg/cm2 [4] [%]
N#CC1(NC(=O)c2cc(NC(=O)[C@H]3[C@H](c4cc(Cl)cc(Cl)c4)C3(Cl)Cl)ccc2Cl)CCC1 (relative stereo) [Molecule F12, trans-2-Chloro-N-(1-cyanocyclobutyl)-5-(2,2-dichloro-3-(3,5-dichlorophenyl)cyclopropanecarboxamido)benzamide] | 0 to 80 | 50 to 100 | A (80-100) | 50 to 100
N#CC1(NC(=O)c2cc(NC(=O)[C@H]3[C@H](c4cc(Cl)c(Cl)c(Cl)c4)C3(Cl)Cl)ccc2Cl)CCC1 (relative stereo) [Molecule F13, trans-2-Chloro-N-(1-cyanocyclobutyl)-5-(2,2-dichloro-3-(3,4,5-trichlorophenyl)cyclopropanecarboxamido)benzamide] | 0 to 80 | 50 to 100 | A (80-100) | 50 to 100
O=C(NC1CSC1)c1cc(NC(=O)[C@H]2[C@H](c3cc(Cl)cc(Cl)c3)C2(Cl)Cl)ccc1Cl (relative stereo) [Molecule F15, trans-2-Chloro-5-(2,2-dichloro-3-(3,5-dichlorophenyl)cyclopropanecarboxamido)-N-(thietan-3-yl)benzamide] | 80 to 100 | 50 to 100 | A (80-100) | 50 to 100
O=C(NC1CSC1)c1cc(NC(=O)[C@H]2[C@H](c3ccc(Cl)c(Cl)c3)C2(Cl)Cl)ccc1Cl (relative stereo) [Molecule F16, trans-2-Chloro-5-(2,2-dichloro-3-(3,4-dichlorophenyl)cyclopropanecarboxamido)-N-(thietan-3-yl)benzamide] | 80 to 100 | 50 to 100 | A (80-100) | 50 to 100
O=C(NC1CSC1)c1cc(NC(=O)[C@H]2[C@H](c3cc(Cl)c(Cl)c(Cl)c3)C2(Cl)Cl)ccc1Cl (relative stereo) [Molecule F17, trans-2-Chloro-5-(2,2-dichloro-3-(3,4,5-trichlorophenyl)cyclopropanecarboxamido)-N-(thietan-3-yl)benzamide] | 80 to 100 | 50 to 100 | A (80-100) | 50 to 100
N#CC1(NC(=O)c2cc(NC(=O)[C@H]3[C@H](c4cccc(C(F)(F)F)c4)C3(Cl)Cl)ccc2Cl)CC1 (relative stereo) [Molecule F18, trans-2-Chloro-N-(1-cyanocyclopropyl)-5-(2,2-dichloro-3-(3-(trifluoromethyl)phenyl)cyclopropanecarboxamido)benzamide] | 80 to 100 | 50 to 100 | B (More than 0-Less than 80) | 50 to 100
O=C(NC1CC(F)(F)C1)c1cc(NC(=O)[C@H]2[C@H](c3cccc(C(F)(F)F)c3)C2(Cl)Cl)ccc1Cl (relative stereo) [Molecule F19, trans-2-Chloro-5-(2,2-dichloro-3-(3-(trifluoromethyl)phenyl)cyclopropanecarboxamido)-N-(3,3-difluorocyclobutyl)benzamide] | 80 to 100 | 50 to 100 | B (More than 0-Less than 80) | 50 to 100
O=C(NC1CC(F)(F)C1)c1cc(NC(=O)[C@H]2[C@H](c3ccc(OC(F)(F)F)c(Cl)c3)C2(Cl)Cl)ccc1Cl (relative stereo) [Molecule F21, trans-2-Chloro-5-(2,2-dichloro-3-(3-chloro-4-(trifluoromethoxy)phenyl)cyclopropanecarboxamido)-N-(3,3-difluorocyclobutyl)benzamide] | 80 to 100 | 50 to 100 | A (80-100) | 50 to 100
CN(C(=O)c1cc(NC(=O)[C@H]2[C@H](c3cc(Cl)cc(Cl)c3)C2(Cl)Cl)ccc1Cl)C1CC(F)(F)C1 (relative stereo) [Molecule F32, trans-2-Chloro-5-(2,2-dichloro-3-(3,5-dichlorophenyl)cyclopropanecarboxamido)-N-(3,3-difluorocyclobutyl)-N-methylbenzamide] | 80 to 100 | 50 to 100 | A (80-100) | 50 to 100
CN(C(=O)c1cc(NC(=O)[C@H]2[C@H](c3cc(Cl)c(Cl)c(Cl)c3)C2(Cl)Cl)ccc1Cl)C1CC(F)(F)C1 (relative stereo) [Molecule F34, trans-2-Chloro-5-(2,2-dichloro-3-(3,4,5-trichlorophenyl)cyclopropanecarboxamido)-N-(3,3-difluorocyclobutyl)-N-methylbenzamide] | 0 to 80 | 50 to 100 | A (80-100) | 50 to 100
O=C(NC1CCC1)c1cc(NC(=O)[C@H]2[C@H](c3ccc(Cl)c(Cl)c3)C2(Cl)Cl)ccc1Cl (relative stereo) [Molecule F41, trans-2-Chloro-N-cyclobutyl-5-(2,2-dichloro-3-(3,4-dichlorophenyl)cyclopropanecarboxamido)benzamide] | 80 to 100 | 50 to 100 | A (80-100) | 50 to 100
Cc1cc([C@H]2[C@H](C(=O)Nc3ccc(Cl)c(C(=O)NC4CC(F)(F)C4)c3)C2(Cl)Cl)cc(Cl)c1Cl (relative stereo) [Molecule F50, trans-2-Chloro-5-(2,2-dichloro-3-(3,4-dichloro-5-methylphenyl)cyclopropanecarboxamido)-N-(3,3-difluorocyclobutyl)benzamide] | 0 to 80 | 50 to 100 | D (No activity noticed in this bioassay) | 50 to 100
O=C(NC1CC(F)(F)C1)c1cc(NC(=O)[C@H]2[C@H](c3cc(Cl)cc(Cl)c3)C2(Cl)Br)ccc1Cl (relative stereo) [Molecule F71, trans-5-(2-Bromo-2-chloro-3-(3,5-dichlorophenyl)cyclopropane-1-carboxamido)-2-chloro-N-(3,3-difluorocyclobutyl)benzamide] | 80 to 100 | 50 to 100 | B (More than 0-Less than 80) | 50 to 100
N#Cc1cc(Cl)cc([C@H]2[C@H](C(=O)Nc3ccc(Cl)c(C(=O)NC4(C#N)CC4)c3)C2(Cl)Cl)c1 (relative stereo) [Molecule F78, trans-2-Chloro-N-(1-cyanocyclopropyl)-5-(2,2-dichloro-3-(3-chloro-5-cyanophenyl)cyclopropane-1-carboxamido)benzamide] | 0 to 80 | 50 to 100 | D (No activity noticed in this bioassay) | 50 to 100
O=C(NC1CC(F)(F)C1)c1cc(NC(=O)[C@H]2[C@H](c3ccc(F)c(Cl)c3)C2(Cl)Cl)ccc1Cl (relative stereo) [PF7, trans-2-Chloro-5-(2,2-dichloro-3-(3-chloro-4-fluorophenyl)cyclopropane-1-carboxamido)-N-(3,3-difluorocyclobutyl)benzamide] | 80 to 100 | 50 to 100 | D (No activity noticed in this bioassay) | 50 to 100
